Legend:
Experiment in all cases: Apparent affinity (EC50) of energy transfer probes by titration onto live HEK293 cells expressing kinase/Nluc fusions (Table S1)
Format in all cases: binding
[1] = target: full-length kinase/Nluc fusion proteins (Homo sapiens, UniProt P08631); details: HCK, Nluc C; read-out: Probe EC50
[2] = target: full-length kinase/Nluc fusion proteins (Homo sapiens, UniProt Q08345); details: DDR1, Nluc C; read-out: Probe EC50
[3] = target: full-length kinase/Nluc fusion proteins (Homo sapiens, UniProt Q16832); details: DDR2, Nluc C; read-out: Probe EC50
[4] = target: full-length kinase/Nluc fusion proteins (Homo sapiens, UniProt Q15569); details: TESK1 (NP_006276), Nluc orientation N; read-out: Probe EC50
[5] = target: full-length kinase/Nluc fusion proteins (Homo sapiens, UniProt P29322); details: EPHA8, Nluc C; read-out: Probe EC50
[6] = target: full-length kinase/Nluc fusion proteins (Homo sapiens, UniProt P07948); details: LYN, Nluc C; read-out: Probe EC50
[7] = target: full-length kinase/Nluc fusion proteins (Homo sapiens, UniProt P07333); details: CSF1R, Nluc C; read-out: Probe EC50
[8] = target: full-length kinase/Nluc fusion proteins (Homo sapiens, UniProt P45984); details: MAPK9, Nluc N; read-out: Probe EC50
[9] = target: full-length kinase/Nluc fusion proteins (Homo sapiens, UniProt Q9BVS4); details: RIOK2, Nluc N; read-out: Probe EC50
[10] = target: full-length kinase/Nluc fusion proteins (Homo sapiens, UniProt P36888); details: FLT3, Nluc C; read-out: Probe EC50
[11] = target: full-length kinase/Nluc fusion proteins (Homo sapiens, UniProt Q9NY57); details: STK32B (NP_060871), Nluc orientation N; read-out: Probe EC50
[12] = target: full-length kinase/Nluc fusion proteins (Homo sapiens, UniProt Q16620); details: NTRK2, Nluc C; read-out: Probe EC50
[13] = target: full-length kinase/Nluc fusion proteins (Homo sapiens, UniProt P51817); details: PRKX, Nluc C; read-out: Probe EC50
[14] = target: full-length kinase/Nluc fusion proteins (Homo sapiens, UniProt Q02763); details: TEK (NP_000450), Nluc orientation C; read-out: Probe EC50
[15] = target: full-length kinase/Nluc fusion proteins (Homo sapiens, UniProt P54646); details: PRKAA2, Nluc N; read-out: Probe EC50
[16] = target: full-length kinase/Nluc fusion proteins (Homo sapiens, UniProt Q9NYY3); details: PLK2, Nluc N; read-out: Probe EC50
[17] = target: full-length kinase/Nluc fusion proteins (Homo sapiens, UniProt Q9H1R3); details: MYLK2, Nluc C; read-out: Probe EC50
[18] = target: full-length kinase/Nluc fusion proteins (Homo sapiens, UniProt Q9UM73); details: ALK, Nluc C; read-out: Probe EC50
[19] = target: full-length kinase/Nluc fusion proteins (Homo sapiens, UniProt Q7KZI7); details: MARK2, Nluc N; read-out: Probe EC50
[20] = target: full-length kinase/Nluc fusion proteins (Homo sapiens, UniProt Q05397); details: PTK2, Nluc N; read-out: Probe EC50
[21] = target: full-length kinase/Nluc fusion proteins (Homo sapiens, UniProt P22607); details: FGFR3, Nluc C; read-out: Probe EC50
[22] = target: full-length kinase/Nluc fusion proteins (Homo sapiens, UniProt Q9UF33); details: EPHA6, Nluc C; read-out: Probe EC50
[23] = target: full-length kinase/Nluc fusion proteins (Homo sapiens, UniProt Q14680); details: MELK, Nluc N; read-out: Probe EC50
[24] = target: full-length kinase/Nluc fusion proteins (Homo sapiens, UniProt P04629); details: NTRK1, Nluc C; read-out: Probe EC50
[25] = target: full-length kinase/Nluc fusion proteins (Homo sapiens, UniProt Q16816); details: PHKG1, Nluc N; read-out: Probe EC50
[26] = target: full-length kinase/Nluc fusion proteins (Homo sapiens, UniProt O14965); details: AURKA, Nluc C; read-out: Probe EC50
[27] = target: full-length kinase/Nluc fusion proteins (Homo sapiens, UniProt P28482); details: MAPK1, Nluc N; read-out: Probe EC50
[28] = target: full-length kinase/Nluc fusion proteins (Homo sapiens, UniProt P78368); details: CSNK1G2, Nluc N; read-out: Probe EC50
[29] = target: full-length kinase/Nluc fusion proteins (Homo sapiens, UniProt Q08881); details: ITK, Nluc N; read-out: Probe EC50
[30] = target: full-length kinase/Nluc fusion proteins (Homo sapiens, UniProt Q9UQB9); details: AURKC, Nluc C; read-out: Probe EC50
[31] = target: full-length kinase/Nluc fusion proteins (Homo sapiens, UniProt Q9UK32); details: RPS6KA6 (NP_055311), Nluc orientation N; read-out: Probe EC50
[32] = target: full-length kinase/Nluc fusion proteins (Homo sapiens, UniProt P31749); details: AKT1, Nluc C; read-out: Probe EC50
[33] = target: full-length kinase/Nluc fusion proteins (Homo sapiens, UniProt Q8NG66); details: NEK11, Nluc N; read-out: Probe EC50

Sequence of full-length kinase/Nluc fusion proteins (Homo sapiens, UniProt Q14680) (Q14680 whole entry, the tested form may be a part): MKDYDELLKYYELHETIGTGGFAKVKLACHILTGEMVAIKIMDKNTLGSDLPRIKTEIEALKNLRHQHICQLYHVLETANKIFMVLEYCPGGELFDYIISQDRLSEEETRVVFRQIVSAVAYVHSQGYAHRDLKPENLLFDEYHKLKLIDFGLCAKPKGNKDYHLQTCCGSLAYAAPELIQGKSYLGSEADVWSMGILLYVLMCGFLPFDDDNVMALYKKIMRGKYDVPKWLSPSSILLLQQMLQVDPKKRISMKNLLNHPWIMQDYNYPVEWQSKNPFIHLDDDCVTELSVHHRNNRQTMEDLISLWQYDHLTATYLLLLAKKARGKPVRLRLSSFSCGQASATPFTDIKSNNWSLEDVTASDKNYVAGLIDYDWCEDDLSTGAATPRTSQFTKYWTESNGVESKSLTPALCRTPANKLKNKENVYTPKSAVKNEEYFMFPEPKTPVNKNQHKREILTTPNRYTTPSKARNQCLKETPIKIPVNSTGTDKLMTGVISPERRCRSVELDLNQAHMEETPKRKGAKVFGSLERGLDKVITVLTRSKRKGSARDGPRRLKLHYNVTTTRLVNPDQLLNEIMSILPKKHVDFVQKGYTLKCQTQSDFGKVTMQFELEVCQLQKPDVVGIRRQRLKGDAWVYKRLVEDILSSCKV
Sequence of full-length kinase/Nluc fusion proteins (Homo sapiens, UniProt Q7KZI7) (Q7KZI7 whole entry, the tested form may be a part): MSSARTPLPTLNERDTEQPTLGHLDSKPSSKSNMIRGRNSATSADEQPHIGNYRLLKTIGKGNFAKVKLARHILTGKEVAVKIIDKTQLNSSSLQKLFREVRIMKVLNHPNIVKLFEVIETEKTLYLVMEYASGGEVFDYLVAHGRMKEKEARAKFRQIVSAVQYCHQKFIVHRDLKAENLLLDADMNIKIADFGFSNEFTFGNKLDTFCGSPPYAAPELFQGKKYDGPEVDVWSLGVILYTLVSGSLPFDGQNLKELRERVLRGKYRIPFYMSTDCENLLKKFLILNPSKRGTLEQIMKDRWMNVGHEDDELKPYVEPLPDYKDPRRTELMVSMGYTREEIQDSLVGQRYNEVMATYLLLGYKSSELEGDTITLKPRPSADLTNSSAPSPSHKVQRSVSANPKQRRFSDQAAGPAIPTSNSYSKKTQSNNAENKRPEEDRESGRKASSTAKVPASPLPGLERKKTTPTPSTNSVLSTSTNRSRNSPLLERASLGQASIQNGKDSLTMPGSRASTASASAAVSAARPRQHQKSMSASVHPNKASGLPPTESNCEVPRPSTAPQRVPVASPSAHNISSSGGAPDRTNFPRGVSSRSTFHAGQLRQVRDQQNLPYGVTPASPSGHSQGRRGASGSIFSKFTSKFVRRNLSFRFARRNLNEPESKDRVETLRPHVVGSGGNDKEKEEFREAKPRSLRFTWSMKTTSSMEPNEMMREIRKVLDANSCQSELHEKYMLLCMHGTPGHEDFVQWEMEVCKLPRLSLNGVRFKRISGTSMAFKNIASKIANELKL
Sequence of full-length kinase/Nluc fusion proteins (Homo sapiens, UniProt Q15569) (Q15569 whole entry, the tested form may be a part): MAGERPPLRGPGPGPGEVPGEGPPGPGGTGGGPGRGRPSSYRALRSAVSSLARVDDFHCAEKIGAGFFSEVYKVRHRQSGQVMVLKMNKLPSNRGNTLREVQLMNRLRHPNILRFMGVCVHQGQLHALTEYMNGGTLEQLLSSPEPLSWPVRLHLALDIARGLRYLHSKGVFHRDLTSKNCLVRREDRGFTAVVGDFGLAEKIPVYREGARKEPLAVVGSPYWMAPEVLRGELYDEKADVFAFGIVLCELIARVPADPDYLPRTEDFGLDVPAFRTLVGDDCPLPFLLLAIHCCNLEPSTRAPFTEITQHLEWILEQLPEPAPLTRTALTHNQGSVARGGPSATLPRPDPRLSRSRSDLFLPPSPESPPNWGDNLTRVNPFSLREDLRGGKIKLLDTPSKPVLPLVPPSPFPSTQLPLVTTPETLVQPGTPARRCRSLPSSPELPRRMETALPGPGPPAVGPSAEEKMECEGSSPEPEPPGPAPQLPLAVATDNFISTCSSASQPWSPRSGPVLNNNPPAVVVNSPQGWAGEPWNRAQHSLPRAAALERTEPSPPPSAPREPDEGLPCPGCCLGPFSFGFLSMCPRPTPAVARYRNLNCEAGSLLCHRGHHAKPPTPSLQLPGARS
Sequence of full-length kinase/Nluc fusion proteins (Homo sapiens, UniProt Q08881) (Q08881 whole entry, the tested form may be a part): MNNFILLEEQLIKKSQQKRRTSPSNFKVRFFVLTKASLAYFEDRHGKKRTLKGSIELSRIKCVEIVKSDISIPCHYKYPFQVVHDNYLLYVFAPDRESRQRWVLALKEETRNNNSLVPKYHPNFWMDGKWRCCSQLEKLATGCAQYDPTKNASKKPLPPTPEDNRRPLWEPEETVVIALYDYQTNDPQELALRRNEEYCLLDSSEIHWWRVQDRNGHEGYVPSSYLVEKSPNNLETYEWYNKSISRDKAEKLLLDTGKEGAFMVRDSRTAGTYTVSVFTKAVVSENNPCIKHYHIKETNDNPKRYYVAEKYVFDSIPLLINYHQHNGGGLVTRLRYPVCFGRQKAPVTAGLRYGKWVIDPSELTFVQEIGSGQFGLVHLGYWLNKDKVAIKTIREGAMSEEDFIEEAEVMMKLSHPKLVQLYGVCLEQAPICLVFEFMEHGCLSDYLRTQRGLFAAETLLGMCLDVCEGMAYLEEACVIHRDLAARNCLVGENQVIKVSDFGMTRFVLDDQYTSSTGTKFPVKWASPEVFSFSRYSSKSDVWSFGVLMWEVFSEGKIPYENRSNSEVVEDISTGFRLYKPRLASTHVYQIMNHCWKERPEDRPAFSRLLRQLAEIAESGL
Sequence of full-length kinase/Nluc fusion proteins (Homo sapiens, UniProt Q9BVS4) (Q9BVS4 whole entry, the tested form may be a part): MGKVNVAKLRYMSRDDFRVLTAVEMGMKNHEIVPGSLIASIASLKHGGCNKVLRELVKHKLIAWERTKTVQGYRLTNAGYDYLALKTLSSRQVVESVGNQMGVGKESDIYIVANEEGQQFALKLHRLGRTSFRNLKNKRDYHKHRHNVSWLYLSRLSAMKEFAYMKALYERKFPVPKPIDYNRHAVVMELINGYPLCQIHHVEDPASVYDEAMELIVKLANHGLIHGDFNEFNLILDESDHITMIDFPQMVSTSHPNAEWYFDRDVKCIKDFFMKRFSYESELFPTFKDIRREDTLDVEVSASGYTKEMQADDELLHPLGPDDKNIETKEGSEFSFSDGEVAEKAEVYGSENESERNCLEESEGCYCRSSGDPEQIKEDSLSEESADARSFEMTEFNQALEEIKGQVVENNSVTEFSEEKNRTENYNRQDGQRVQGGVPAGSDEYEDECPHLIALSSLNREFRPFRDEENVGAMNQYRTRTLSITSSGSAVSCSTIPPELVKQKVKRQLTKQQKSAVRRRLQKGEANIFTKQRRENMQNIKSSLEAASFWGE
Sequence of full-length kinase/Nluc fusion proteins (Homo sapiens, UniProt P04629) (P04629 33-796): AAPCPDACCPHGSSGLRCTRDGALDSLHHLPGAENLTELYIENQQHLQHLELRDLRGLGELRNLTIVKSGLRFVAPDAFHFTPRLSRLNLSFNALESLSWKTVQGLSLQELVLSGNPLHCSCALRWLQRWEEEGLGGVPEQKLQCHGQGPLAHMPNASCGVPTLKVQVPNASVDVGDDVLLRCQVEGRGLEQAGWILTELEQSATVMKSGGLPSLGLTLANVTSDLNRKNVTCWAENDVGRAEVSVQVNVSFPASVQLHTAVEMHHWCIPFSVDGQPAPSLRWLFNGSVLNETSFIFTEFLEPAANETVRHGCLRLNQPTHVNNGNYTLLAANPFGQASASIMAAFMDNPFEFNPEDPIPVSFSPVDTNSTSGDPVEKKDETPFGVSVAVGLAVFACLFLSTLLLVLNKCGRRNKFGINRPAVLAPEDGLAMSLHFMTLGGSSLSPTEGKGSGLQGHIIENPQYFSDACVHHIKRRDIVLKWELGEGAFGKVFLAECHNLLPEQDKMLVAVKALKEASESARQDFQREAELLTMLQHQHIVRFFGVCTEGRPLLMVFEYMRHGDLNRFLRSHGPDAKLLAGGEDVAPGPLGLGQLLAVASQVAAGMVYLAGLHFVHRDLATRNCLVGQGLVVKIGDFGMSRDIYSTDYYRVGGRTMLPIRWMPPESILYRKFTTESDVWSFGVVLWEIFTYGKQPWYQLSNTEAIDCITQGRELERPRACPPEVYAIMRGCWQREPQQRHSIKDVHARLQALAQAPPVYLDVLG
Sequence of full-length kinase/Nluc fusion proteins (Homo sapiens, UniProt P07948) (P07948 whole entry, the tested form may be a part): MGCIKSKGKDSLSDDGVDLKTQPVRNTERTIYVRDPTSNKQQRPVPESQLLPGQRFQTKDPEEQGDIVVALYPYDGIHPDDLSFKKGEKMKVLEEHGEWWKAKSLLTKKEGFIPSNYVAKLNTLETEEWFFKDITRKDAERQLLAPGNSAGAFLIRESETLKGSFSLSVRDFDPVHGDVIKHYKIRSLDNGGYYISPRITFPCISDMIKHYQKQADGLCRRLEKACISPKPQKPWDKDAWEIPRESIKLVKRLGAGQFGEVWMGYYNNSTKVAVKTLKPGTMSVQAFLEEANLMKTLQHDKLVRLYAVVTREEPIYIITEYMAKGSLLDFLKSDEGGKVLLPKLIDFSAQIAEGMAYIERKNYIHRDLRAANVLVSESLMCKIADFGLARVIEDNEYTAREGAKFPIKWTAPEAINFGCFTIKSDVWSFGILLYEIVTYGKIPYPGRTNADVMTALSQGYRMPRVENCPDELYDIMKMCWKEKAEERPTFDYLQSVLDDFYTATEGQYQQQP
Sequence of full-length kinase/Nluc fusion proteins (Homo sapiens, UniProt Q16816) (Q16816 whole entry, the tested form may be a part): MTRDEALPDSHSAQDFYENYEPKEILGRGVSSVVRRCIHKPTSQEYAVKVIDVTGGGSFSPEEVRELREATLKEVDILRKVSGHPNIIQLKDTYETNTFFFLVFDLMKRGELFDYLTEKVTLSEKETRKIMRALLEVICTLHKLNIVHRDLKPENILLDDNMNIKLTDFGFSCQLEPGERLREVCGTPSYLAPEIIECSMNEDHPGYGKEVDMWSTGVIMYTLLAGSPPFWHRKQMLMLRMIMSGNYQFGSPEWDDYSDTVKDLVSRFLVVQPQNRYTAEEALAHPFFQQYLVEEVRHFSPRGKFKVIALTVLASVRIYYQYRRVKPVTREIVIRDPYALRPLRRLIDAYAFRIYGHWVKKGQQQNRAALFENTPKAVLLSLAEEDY

How did the EC50 [1] turn out when `Cc1nc(Nc2ncc(C(=O)Nc3c(C)cccc3Cl)s2)cc(N2CCN(CCOCCNC(=O)CCc3ccc4n3[B-](F)(F)[N+]3=C(c5ccc[nH]5)C=CC3=C4)CC2)n1` [Energy Transfer Probe 6, 2-((6-(4-(2-(2-aminoethoxy)ethyl)piperazin-1-yl)-2-methylpyrimidin-4-yl)amino)-N-(2-chloro-6-methylphenyl)thiazole-5-carboxamide-NanoBRET 590] was run?
Its EC50 is > 1000 nM.

And the EC50 [2]?
The EC50 was 40 nM.

What about the EC50 [3] of the same compound?
Its EC50 is 100 nM.

And the EC50 [4]?
Its EC50 is > 1000 nM.

What about the EC50 [5] of the same compound?
Its EC50 is 10 nM.

And the EC50 [6]?
The EC50 was > 1000 nM.

And the EC50 [7]?
Its EC50 is 200 nM.

`CNC(=O)c1ccccc1Nc1nc(Nc2ccc(N3CCN(C(=O)CCOCCOCCOCCOCCNC(=O)CCc4ccc5n4[B-](F)(F)[N+]4=C(c6ccc[nH]6)C=CC4=C5)CC3)cc2)ncc1Cl` [Energy Transfer Probe 5, 2-((2-((4-(4-(1-amino-3,6,9,12-tetraoxapentadecan-15-oyl)piperazin-1-yl)phenyl)amino)-5-chloropyrimidin-4-yl)amino)-N-methylbenzamide-NanoBRET 590] was tested. Which EC50 [8] did it give?
Its EC50 is 500 nM.

And the EC50 [9]?
Its EC50 is > 1000 nM.

And the EC50 [10]?
The EC50 was > 1000 nM.

And the EC50 [11]?
Its EC50 is 600 nM.

What about the EC50 [12] of the same compound?
Its EC50 is 500 nM.

What about the EC50 [13] of the same compound?
Its EC50 is > 1000 nM.

And the EC50 [14]?
The EC50 was 400 nM.

What about the EC50 [15] of the same compound?
The EC50 was > 1000 nM.

What about the EC50 [16] of the same compound?
Its EC50 is > 1000 nM.

What about the EC50 [17] of the same compound?
The EC50 was > 1000 nM.

What about the EC50 [18] of the same compound?
The EC50 was > 1000 nM.

And the EC50 [19]?
Its EC50 is > 1000 nM.

And the EC50 [20]?
Its EC50 is 90 nM.

What about the EC50 [21] of the same compound?
The EC50 was 500 nM.

What about the EC50 [22] of the same compound?
The EC50 was > 1000 nM.

And the EC50 [23]?
Its EC50 is > 1000 nM.

What about the EC50 [24] of the same compound?
Its EC50 is 400 nM.

What about the EC50 [25] of the same compound?
Its EC50 is 400 nM.

What about the EC50 [26] of the same compound?
Its EC50 is 40 nM.

And the EC50 [27]?
The EC50 was > 1000 nM.

And the EC50 [28]?
The EC50 was > 1000 nM.

And the EC50 [29]?
Its EC50 is 40 nM.

What about the EC50 [30] of the same compound?
Its EC50 is 20 nM.

And the EC50 [31]?
Its EC50 is 400 nM.

What about the EC50 [32] of the same compound?
The EC50 was > 1000 nM.

And the EC50 [33]?
The EC50 was > 1000 nM.

— publication PMC5814754, “Quantitative, Wide-Spectrum Kinase Profiling in Live Cells for Assessing the Effect of Cellular ATP on Target Engagement” (Cell Chemical Biology, 2018)
